According to article PMC10233829 (ACS Omega, 2023):
Converted amounts (≈) assume the structure as drawn. Where two headings read alike, the source gives them in different places.

Tests used:
S. aureus NCTC 4163 = test: MIC, twofold microdilution, standard strain; format: cell-based; conditions: Staphylococcus aureus, NCTC4163, 18 h
S. aureus ATCC 25923 = test: MIC, twofold microdilution, standard strain; format: cell-based; conditions: Staphylococcus aureus, ATCC25923, 18 h
S. aureus ATCC 6538 = test: MIC, twofold microdilution, standard strain; format: cell-based, Staphylococcus aureus; conditions: for MIC: Staphylococcus aureus, ATCC6538, standard strain, 18 h
S. aureus ATCC 29213 = test: MIC, twofold microdilution, standard strain; format: cell-based; conditions: Staphylococcus aureus, ATCC29213, 18 h
[1] = test system: S. epidermidis ATCC 12228; test: MIC, twofold microdilution, standard strain; format: cell-based; conditions: Staphylococcus epidermidis, ATCC12228, 18 h
[2] = test system: S. epidermidis ATCC 35984; test: MIC, twofold microdilution, standard strain; format: cell-based; conditions: Staphylococcus epidermidis, ATCC35984, 18 h
P. aeruginosa ATCC 15442 = test: MIC, twofold microdilution, standard strain; format: cell-based, Pseudomonas aeruginosa; conditions: for MIC: Pseudomonas aeruginosa, ATCC15442, standard strain, 18 h
E. coli ATCC 25922 = test: MIC, twofold microdilution, standard strain; format: cell-based, Escherichia coli; conditions: for MIC: Escherichia coli, ATCC25922, standard strain, 18 h
S. aureus 180 = test: MIC, twofold microdilution, clinical strain; format: cell-based; conditions: Staphylococcus aureus, 18 h
S. aureus 5595 = test: MIC, twofold microdilution, clinical strain; format: cell-based; conditions: Staphylococcus aureus, 18 h
S. aureus T5595 = test: MIC, twofold microdilution, clinical strain; format: cell-based, Staphylococcus aureus; conditions: for MIC: Staphylococcus aureus, T5595, 18 h
S. aureus T5591 = test: MIC, twofold microdilution, clinical strain; format: cell-based, Staphylococcus aureus; conditions: for MIC: Staphylococcus aureus, T5591, 18 h
S. epidermidis 4341 = test: MIC, twofold microdilution, clinical strain; format: cell-based; conditions: Staphylococcus epidermidis, 18 h
S. epidermidis 5253 = test: MIC, twofold microdilution, clinical strain; format: cell-based, Staphylococcus epidermidis; conditions: for MIC: Staphylococcus epidermidis, 5253, 18 h
S. epidermidis KR4243/1 = test: MIC, twofold microdilution, clinical strain; format: cell-based; conditions: Staphylococcus epidermidis, 18 h
S. pasteuri KR 4358 = test: MIC, twofold microdilution, clinical strain; format: cell-based; conditions: Staphylococcus pasteuri, KR4358, 18 h
P. aeruginosa 37 = test: MIC, twofold microdilution, clinical strain; format: cell-based; conditions: Pseudomonas aeruginosa, 18 h
P. aeruginosa 659 = test: MIC, twofold microdilution, clinical strain; format: cell-based; conditions: Pseudomonas aeruginosa, 18 h
E. coli 951 = test: MIC, twofold microdilution, clinical strain; format: cell-based; conditions: Escherichia coli, 18 h
E. coli 520 = test: MIC, twofold microdilution, clinical strain; format: cell-based; conditions: Escherichia coli, 18 h
E. coli 600 = test: MIC, twofold microdilution, clinical strain; format: cell-based, Escherichia coli; conditions: Escherichia coli, 600, 18 h
E. cloacae 8 = test: MIC, twofold microdilution, clinical strain; format: cell-based, Escherichia cloacae; conditions: for MIC: Enterobacter cloacae, 8, clinical strain, 18 h
K. pneumoniae 28 = test: MIC, twofold microdilution, clinical strain; format: cell-based; conditions: Klebsiella pneumoniae, 18 h
K. pneumoniae 510 = test: MIC, twofold microdilution, clinical strain; format: cell-based, Klebsiella pneumoniae; conditions: for MIC: Klebsiella pneumoniae, 510, clinical strain, 18 h
M. tuberculosis H37Rv = test: Tuberculostatic activity, Microplate Alamar Blue Assay (MIC); format: cell-based, Mycobacterium tuberculosis; design: concentration with growth inhibition as good as RMP and SM or EMB: unit not given here; conditions: for MIC: Mycobacterium tuberculosis, H37RV, MABA, read-out: MIC M. tuberculosis H37Rv
[3] = test system: M. tuberculosis Spec. 192; test: as above; format: cell-based; conditions: Mycobacterium tuberculosis, MABA, read-out: MIC M. tuberculosis Spec. 192 (sensitive to tuberculostatics)
PC3 cells = test: MTT assay, cytotoxic activity; format: cell-based, human; conditions: Homo sapiens, PC-3, 72 h, MTT, 72 h
How it was run: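 Cytotoxicity readout: relative MTT level (%), i.e. absorbance of compound-treated PC3 cells divided by that of untreated controls, ×100. Cultures were kept in a humidified 37 °C, 5% CO2 incubator.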

[4] = MTT assay, cytotoxic activity; format: cell-based; conditions: human, HaCaT cells (immortal keratinocytes); MTT, 72 h, normal cell line; read-out: IC50 HaCaT
How it was run: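 Viability was calculated as A/B × 100%, with A the absorbance of treated samples and B that of untreated controls, from MTT reduction. Cells were cultured in a humidified 37 °C/5% CO2 incubator.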

[5] = test system: Staphylococci (standard strains); test: MIC, standard Gram-positive strains as a panel; format: cell-based, S. aureus, S. epidermidis; conditions: for MIC: read-out: MIC toward standard Staphylococci (range over strains)
[6] = test system: clinical bacterial strains; test: MIC, clinical isolates as groups of strains; format: cell-based
[7] = standard Gram-positive strains of Table 1

Compound	MIC (S. aureus NCTC 4163) [µg/mL]	MIC (S. aureus ATCC 25923) [µg/mL]	MIC (S. aureus ATCC 6538) [µg/mL]	MIC (S. aureus ATCC 29213) [µg/mL]	MIC [1] [µg/mL]	MIC [2] [µg/mL]	MIC (P. aeruginosa ATCC 15442) [µg/mL]	MIC (E. coli ATCC 25922) [µg/mL]	MIC (S. aureus 180) [µg/mL]	MIC (S. aureus 5595) [µg/mL]	MIC (S. aureus T5595) [µg/mL]	MIC (S. aureus T5591) [µg/mL]	MIC (S. epidermidis 4341) [µg/mL]	MIC (S. epidermidis 5253) [µg/mL]	MIC (S. epidermidis KR4243/1) [µg/mL]	MIC (S. pasteuri KR 4358) [µg/mL]	MIC (P. aeruginosa 37) [µg/mL]	MIC (P. aeruginosa 659) [µg/mL]	MIC (E. coli 951) [µg/mL]	MIC (E. coli 520) [µg/mL]	further results
O=C(O)c1cn(C2CC2)c2cc(N3CCN(C(=O)C4CC4)CC3)c(F)cc2c1=O [Compound 2, 7-(4-Cyclopropanecarbonyl-piperazin-1-yl)-1-cyclopropyl-6-fluoro-4-oxo-1,4-dihydro-quinoline-3-carboxylic Acid]	0.1 (≈ 0.25 µM)	0.2 (≈ 0.501 µM)	0.1 (≈ 0.25 µM)	0.1 (≈ 0.25 µM)	0.1 (≈ 0.25 µM)	0.1 (≈ 0.25 µM)	0.8 (≈ 2 µM)	0.05 (≈ 0.125 µM)	0.4 (≈ 1 µM)	0.4 (≈ 1 µM)	0.1 to 0.2 (≈ 0.25 to 0.501 µM)	0.1 to 0.2 (≈ 0.25 to 0.501 µM)	12.8 (≈ 32 µM)	12.8 to 25.6 (≈ 32 to 64.1 µM)	0.2 (≈ 0.501 µM)	0.2 (≈ 0.501 µM)	12.8 (≈ 32 µM)	6.4 (≈ 16 µM)	6.4 (≈ 16 µM)	0.2 (≈ 0.501 µM)	MIC S. aureus T5595 (S. aureus T5595; 18 h): 0.2 µg/mL (≈ 0.501 µM); MIC S. aureus T5591 (S. aureus T5591; 18 h): 0.2 µg/mL (≈ 0.501 µM); MIC S. epidermidis 5253 (S. epidermidis 5253; 18 h): 25.6 µg/mL (≈ 64.1 µM); MIC (E. coli 600): 0.2 µg/mL (≈ 0.501 µM); MIC times lower than CP alone (E. cloacae 8; E. cloacae isolate): 1.2 times; MIC (E. cloacae 8): 0.05 µg/mL (≈ 0.125 µM); MIC (K. pneumoniae 28): > 25.6 µg/mL; MIC (K. pneumoniae 510): 25.6 µg/mL (≈ 64.1 µM); concentration with growth inhibition as good as RMP and SM or EMB (M. tuberculosis H37Rv; M. tuberculosis H37Rv): 1–2; MIC (M. tuberculosis H37Rv): 1 µg/mL (≈ 2.5 µM); MIC [3]: 0.5 µg/mL (≈ 1.25 µM); IC50 (PC3 cells): 85.2 ± 8.2 µM; IC50 at 72 h [4]: 75.7 ± 7.5 µM; MIC [5]: 0.05 to 0.4 µg/mL (≈ 0.125 to 1 µM); fold more active than CP toward standard Staphylococci [5, 7]: 1.25–10 fold; times more powerful than CP ([6]; S. aureus T5595 and T5591): 1.25–2.5 times; MIC ([6]; clinical strains, read-out: MIC against selected E. coli and E. cloacae strains): 0.1 to 0.8 µg/mL (≈ 0.25 to 2 µM)
O=C(O)c1cn(C2CC2)c2cc(N3CCN(C(=O)CCCCBr)CC3)c(F)cc2c1=O [Compound 11, 7-[4-(5-Bromopentanoyl)-piperazin-1-yl]-1-cyclopropyl-6-fluoro-4-oxo-1,4-dihydro-quinoline-3-carboxylic Acid]	0.1 (≈ 0.202 µM)	0.4 (≈ 0.809 µM)	0.1 (≈ 0.202 µM)	0.2 (≈ 0.405 µM)	0.1 (≈ 0.202 µM)	0.1 (≈ 0.202 µM)	0.1 (≈ 0.202 µM)	0.025 (≈ 0.0506 µM)	0.8 (≈ 1.62 µM)	0.8 (≈ 1.62 µM)	0.8 (≈ 1.62 µM)	0.8 (≈ 1.62 µM)	25.6 (≈ 51.8 µM)	> 25.6	0.4 (≈ 0.809 µM)	0.2 (≈ 0.405 µM)	0.8 (≈ 1.62 µM)	0.8 (≈ 1.62 µM)	0.4 (≈ 0.809 µM)	0.1 (≈ 0.202 µM)	MIC used in biofilm eradication assay, S. aureus 6538 (S. aureus ATCC 6538; Table S1, MIC): 0.100 µg/mL (≈ 0.202 µM); MIC used in biofilm eradication assay, P. aeruginosa 15442 (P. aeruginosa ATCC 15442; Table S1, MIC): 0.100 µg/mL (≈ 0.202 µM); MIC used in biofilm eradication assay, E. coli ATCC 25922 (E. coli ATCC 25922; Table S1, MIC): 0.025 µg/mL (≈ 0.0506 µM); MIC (E. coli 600): 0.05 µg/mL (≈ 0.101 µM); MIC (E. cloacae 8): 0.05 µg/mL (≈ 0.101 µM); MIC (K. pneumoniae 28): > 25.6 µg/mL; share of the reference (CP) activity (K. pneumoniae 510; Klebsiella pneumoniae rods): 62.5%; MIC (K. pneumoniae 510): 6.4 µg/mL (≈ 12.9 µM); MIC (M. tuberculosis H37Rv): 0.5 µg/mL (≈ 1.01 µM); MIC [3]: 0.5 µg/mL (≈ 1.01 µM); IC50 (PC3 cells): 81.7 ± 8.9 µM; IC50 at 72 h [4]: 80.1 ± 8.1 µM; fold more active than CP toward standard Staphylococci [5, 7]: 1.25–2.5 fold; share of CP inhibitory activity ([6]; S. aureus 180 and 5595): 62.5%
O=C(O)c1cn(C2CC2)c2cc(N3CCN(C(=O)CCC(F)(F)F)CC3)c(F)cc2c1=O [Compound 15, 7-[4-(4,4,4-Trifluorobutyryl)-piperazin-1-yl]-1-cyclopropyl-6-fluoro-4-oxo-1,4-dihydro-quinoline-3-carboxylic Acid]	0.2 (≈ 0.439 µM)	0.2 (≈ 0.439 µM)	0.2 (≈ 0.439 µM)	0.2 (≈ 0.439 µM)	0.2 (≈ 0.439 µM)	0.2 (≈ 0.439 µM)	1 (≈ 2.2 µM)	1.6 (≈ 3.51 µM)	0.5 (≈ 1.1 µM)	0.5 (≈ 1.1 µM)	0.4 (≈ 0.878 µM)	0.4 (≈ 0.878 µM)	> 25.6	> 25.6	0.2 (≈ 0.439 µM)	0.2 (≈ 0.439 µM)	> 25.6	> 25.6	> 25.6	3.2 (≈ 7.03 µM)	MIC (E. coli 600): 3.2 µg/mL (≈ 7.03 µM); MIC (E. cloacae 8): > 25.6 µg/mL; MIC (K. pneumoniae 28): > 25.6 µg/mL; MIC (K. pneumoniae 510): > 25.6 µg/mL; MIC (M. tuberculosis H37Rv): 64 µg/mL (≈ 141 µM); MIC [3]: 64 µg/mL (≈ 141 µM); IC50 (PC3 cells): 15.7 ± 3.8 µM; IC50 at 72 h [4]: 85.5 ± 9.2 µM; MIC [5, 7]: 0.2 µg/mL (≈ 0.439 µM); share of the reference (CP) activity ([6]; S. aureus T5595 and T5591): 62.5%
